# What was measured:
# rat [1] = settings: Multigenerational reproductive toxicity study, sprague dawley, Oral, Water, dose end: 3 generation, systemic / pathology microscopic / liver / apoptosis + systemic / pathology microscopic / liver / glycogen deposition
# rat [2] = settings: Peri- and post-natal toxicity study (Segment III), sprague dawley, Oral, Gavage/Intubation, dose end: 5 PND
# rat [3] = settings: Prenatal developmental toxicity study, sprague dawley, Oral, Gavage/Intubation, dose end: 19 GD
# mouse [4] = settings: Prenatal developmental toxicity study, swiss albino, Oral, Gavage/Intubation, dose end: 16 GD
# mouse [5] = settings: Prenatal developmental toxicity study, other, Oral, Water, dose end: 19 GD
# rat [6] = settings: Prenatal developmental toxicity study, sprague dawley, Oral, Gavage/Intubation, dose end: 19 GD; remark: listed apart in the source
# rat [7] = settings: Prenatal developmental toxicity study, wistar, Injection, Intramuscular, dose end: 15 GD
# rat [8] = settings: Prenatal developmental toxicity study, sprague dawley, Injection, Subcutaneous, dose end: 15 GD
# rat [9] = settings: Prenatal developmental toxicity study, sprague dawley, Injection, Intramuscular, dose end: 15 GD
# rat [10] = settings: Prenatal developmental toxicity study, sprague dawley, Oral, [Not Specified], dose end: 15 GD
# [11] = group: developmental, developmental / offspring survival late / viability index / viability index + developmental / developmental landmark / vaginal opening / …
# [12] = group: maternal, reproductive / offspring survival early / dead fetuses / dead fetuses
# [13] = group: offspring, systemic / in life observation / body weight / offspring (pup) weight
# [14] = group: offspring, systemic / in life observation / body weight / offspring (pup) weight + systemic / organ weight / prostate / absolute + systemic / organ …
# [15] = group: developmental, developmental / developmental malformation / bone / unossified + systemic / in life observation / body weight / fetal weight
# [16] = group: maternal, reproductive / reproductive performance / postimplantation loss / postimplantation loss + reproductive / reproductive performance / …
# [17] = group: developmental, developmental / developmental malformation / general / hemorrhage + developmental / developmental malformation / kidney / dilated renal …
# [18] = group: maternal, reproductive / reproductive performance / implantations / implantations + reproductive / reproductive performance / postimplantation loss / …
# [19] = group: developmental, developmental / developmental malformation / bone / delayed ossification + developmental / developmental malformation / bone / exencephaly…
# [20] = group: maternal, reproductive / reproductive performance / resorptions / resorptions + systemic / in life observation / body weight / body weight + systemic…
# [21] = group: maternal, systemic / in life observation / body weight / body weight gain + systemic / in life observation / clinical signs / salivation
# [22] = group: maternal, systemic / in life observation / body weight / body weight gain + systemic / in life observation / clinical signs / salivation + systemic / …
# [23] = group: developmental, developmental / developmental malformation / bone / wavy + developmental / developmental malformation / heart / membranous ventricular …
# [24] = group: maternal, reproductive / reproductive performance / postimplantation loss / postimplantation loss
# [25] = group: developmental, developmental / developmental malformation / bone / wavy + systemic / in life observation / body weight / fetal weight
structure (smiles),measurement,setting,value
CCCCCCCCc1ccc(O)cc1 [4-Octylphenol],LEL,rat [1]; group: offspring,1.25 mg/kg/day
same,LOAEL,rat [1]; group: offspring,> 1.25 mg/kg/day
same,NEL,rat [1]; group: offspring,< 1.25 mg/kg/day
same,NOAEL,rat [1]; group: offspring,≥ 1.25 mg/kg/day
same,LEL,rat [1]; group: parental,1.25 mg/kg/day
same,LOAEL,rat [1]; group: parental,> 1.25 mg/kg/day
same,NEL,rat [1]; group: parental,< 1.25 mg/kg/day
same,NOAEL,rat [1]; group: parental,≥ 1.25 mg/kg/day
same,LEL,"rat [2]; group: developmental, developmental / developmental landmark / vaginal opening / vaginal opening + developmental / developmental landmark / preputial separation…",50 mg/kg/day
same,LOAEL,rat [2]; [11],> 100 mg/kg/day
same,NEL,rat [2]; [11],25 mg/kg/day
same,NOAEL,rat [2]; [11],≥ 100 mg/kg/day
same,LEL,rat [2]; [12],50 mg/kg/day
same,LOAEL,rat [2]; [12],> 100 mg/kg/day
same,NEL,rat [2]; [12],25 mg/kg/day
same,NOAEL,rat [2]; [12],≥ 100 mg/kg/day
same,LOAEL,rat [2]; [13],25 mg/kg/day
same,NOAEL,rat [2]; [13],12.5 mg/kg/day
same,LEL,rat [2]; [14],12.5 mg/kg/day
same,NEL,rat [2]; [14],< 12.5 mg/kg/day
CCC#N [Propionitrile],LEL,"rat [3]; group: developmental, developmental / developmental malformation / bone / unossified",40 mg/kg/day
same,LOAEL,rat [3]; [15],> 80 mg/kg/day
same,NEL,rat [3]; [15],20 mg/kg/day
same,NOAEL,rat [3]; [15],≥ 80 mg/kg/day
same,LEL,rat [3]; [16],80 mg/kg/day
same,LOAEL,rat [3]; [16],> 80 mg/kg/day
same,NEL,rat [3]; [16],40 mg/kg/day
same,NOAEL,rat [3]; [16],≥ 80 mg/kg/day
CC(C)OC(=O)C(C)(C)Oc1ccc(C(=O)c2ccc(Cl)cc2)cc1 [Fenofibrate],LEL,mouse [4]; [17],11.7 mg/kg/day
same,LOAEL,mouse [4]; [17],> 586 mg/kg/day
same,NEL,mouse [4]; [17],< 11.7 mg/kg/day
same,NOAEL,mouse [4]; [17],≥ 586 mg/kg/day
same,LEL,mouse [4]; [18],586 mg/kg/day
same,LOAEL,mouse [4]; [18],> 586 mg/kg/day
same,NEL,mouse [4]; [18],117 mg/kg/day
same,NOAEL,mouse [4]; [18],≥ 586 mg/kg/day
Cl.Cl.NCCNCCNCCN [Trientine hydrochloride],LOAEL,mouse [5]; [19],> 1600 mg/kg/day
same,NEL,mouse [5]; [19],400 mg/kg/day
same,NOAEL,mouse [5]; [19],≥ 1600 mg/kg/day
same,LEL,"mouse [5]; group: developmental, developmental / developmental malformation / bone / delayed ossification + developmental / developmental malformation / bone / microcephaly…",800 mg/kg/day
same,LEL,mouse [5]; [20],1600 mg/kg/day
same,LOAEL,mouse [5]; [20],> 1600 mg/kg/day
same,NEL,mouse [5]; [20],800 mg/kg/day
same,NOAEL,mouse [5]; [20],≥ 1600 mg/kg/day
CN=C=S [Methyl isothiocyanate],LEL,rat [6]; [15],30 mg/kg/day
same,LOAEL,rat [6]; [15],30 mg/kg/day
same,NEL,rat [6]; [15],10 mg/kg/day
same,NOAEL,rat [6]; [15],10 mg/kg/day
same,LEL,rat [6]; [21],10 mg/kg/day
same,LOAEL,rat [6]; [21],10 mg/kg/day
same,NEL,rat [6]; [22],3 mg/kg/day
same,NOAEL,rat [6]; [22],3 mg/kg/day
OCC(O)CO [Glycerol],LEL,rat [7]; [23],600 mg/kg/day
same,LOAEL,rat [7]; [23],> 600 mg/kg/day
same,NEL,rat [7]; [23],< 600 mg/kg/day
same,NOAEL,rat [7]; [23],≥ 600 mg/kg/day
same,LEL,rat [7]; [24],600 mg/kg/day
same,LOAEL,rat [7]; [24],> 600 mg/kg/day
same,NEL,rat [7]; [24],< 600 mg/kg/day
same,NOAEL,rat [7]; [24],≥ 600 mg/kg/day
same,LEL,rat [8]; [23],600 mg/kg/day
same,LOAEL,rat [8]; [23],> 600 mg/kg/day
same,NEL,rat [8]; [23],< 600 mg/kg/day
same,NOAEL,rat [8]; [23],≥ 600 mg/kg/day
same,LEL,rat [8]; [24],600 mg/kg/day
same,LOAEL,rat [8]; [24],> 600 mg/kg/day
same,NEL,rat [8]; [24],< 600 mg/kg/day
same,NOAEL,rat [8]; [24],≥ 600 mg/kg/day
same,LOAEL,rat [9]; [23],> 1200 mg/kg/day
same,NOAEL,rat [9]; [23],≥ 1200 mg/kg/day
same,LEL,rat [9]; [25],300 mg/kg/day
same,NEL,rat [9]; [25],< 300 mg/kg/day
same,LEL,rat [9]; [24],300 mg/kg/day
same,LOAEL,rat [9]; [24],> 1200 mg/kg/day
same,NEL,rat [9]; [24],< 300 mg/kg/day
same,NOAEL,rat [9]; [24],≥ 1200 mg/kg/day
same,LEL,rat [10]; [23],600 mg/kg/day
same,LOAEL,rat [10]; [23],> 1200 mg/kg/day
same,NEL,rat [10]; [23],< 600 mg/kg/day
same,NOAEL,rat [10]; [23],≥ 1200 mg/kg/day
same,LEL,rat [10]; [24],600 mg/kg/day
same,LOAEL,rat [10]; [24],> 1200 mg/kg/day
same,NEL,rat [10]; [24],< 600 mg/kg/day
same,NOAEL,rat [10]; [24],≥ 1200 mg/kg/day
